This note sets out measurements from PMC10434001, “Glycosylated, Lipid-Binding, CDR-Like Domains of SARS-CoV-2 ORF8 Indicate Unique Sites of Immune Regulation” (Microbiology Spectrum, 2023).

Series [1] concerns deglycosylated ORF8 binding to immune monocytes. The series can be described thus: Immune cell binding assay: peptide inhibition of deglycosylated ORF8 binding to monocytes. Format: cell-based. The note with it: 50 μM peptide with 5 μM FITC-labeled deglycosylated ORF8; human monocytes; 4 h at 37°C; flow cytometry; Fig. 6E and F.
The test system of series [2] is glycosylated ORF8 binding to immune monocytes. The series can be described thus: Immune cell binding assay: peptide inhibition of glycosylated ORF8 binding to monocytes. The note with it: 50 μM peptide with 5 μM FITC-labeled ORF8; human monocytes; 4 h at 37°C; flow cytometry; Fig. 6C and D. The class given is cell-based. Background: In flow cytometry, cells or beads pass a laser one at a time.

For series [3], the system named is human immune monocytes (from PBMC). The series can be described thus: Binding of ORF8 protein forms to immune monocytes (flow cytometry). Format: cell-based.
The conditions of series [4]: after deglycosylation (PNGase F); observation during the experiments.

On to “TNERLCVRFE [P3, 10-residue peptide derived from IL17RA (aa89-98) designed against ORF8]”, for which the “inhibition of deglycosylated ORF8 binding to immune monocytes” value in series [1] is “significantly inhibited”. Also, the “inhibition of glycosylated ORF8 binding to immune cells” value in series [2] is on record as “no significant inhibitory effect”.

Consider “deglycosylated ORF8: ORF8 protein treated with PNGase F enzyme overnight”, for which, in series [3] (FITC-labeled ORF8, human monocytes, flow cytometry, Fig. 6A and B), the “binding to immune cells relative to glycosylated ORF8” value stood at 2 fold.

Take “delipidated ORF8: ORF8 protein treated with 0.5% Triton X-100 overnight”: the “binding to human immune cells compared with ORF8 with lipid modifications” value in series [3] (co-incubated with human PBMC cells, lipid removed with 0.5% Triton X-100 overnight, Fig. 4G and H) is “higher percentage of binding”.

On to “glycosylated ORF8: recombinant SARS-CoV-2 ORF8 (residues 16–121, MBP/His tag) expressed in 293F cells, glycosylated at N78”, for which the “solubility of ORF8” value in series [4] is reported as “deteriorated”. In series [3] (FITC-labeled ORF8, 5 μM, human monocytes, flow cytometry, Fig. 6A and B), the “binding to immune cells” value was “weak binding”.
